In publication PMC9482650, “Quantitative fragmentomics allow affinity mapping of interactomes” (Nature Communications, 2022):
Ends that are not written are not given here.

Key:
Type in all cases: binding
HTRA1 PDZ = HTRA1 PDZ (Homo sapiens, UniProt Q92743); assay: Holdup assay; conditions: composite holdup affinity; 0.00=below quantification threshold; read-out: COMP pKd (converted)
MAGI2_5 PDZ = MAGI2_5 PDZ (Homo sapiens, UniProt Q86UL8); assay: Holdup assay; conditions: composite holdup affinity; 0.00=below quantification threshold; read-out: COMP pKd (converted)
GRIP2_6 PDZ = GRIP2_6 PDZ (Homo sapiens, UniProt Q9C0E4); assay: Holdup assay; conditions: composite holdup affinity; 0.00=below quantification threshold; read-out: COMP pKd (converted)
DLG4_3 PDZ = DLG4_3 PDZ (Homo sapiens, UniProt P78352); assay: Holdup assay; conditions: composite holdup affinity; 0.00=below quantification threshold; read-out: COMP pKd (converted)
GRIP2_3 PDZ = GRIP2_3 PDZ (Homo sapiens, UniProt Q9C0E4); assay: Holdup assay; conditions: composite holdup affinity; 0.00=below quantification threshold; read-out: COMP pKd (converted)
DLG3_3 PDZ = DLG3_3 PDZ (Homo sapiens, UniProt Q92796); assay: Holdup assay; conditions: composite holdup affinity; 0.00=below quantification threshold; read-out: COMP pKd (converted)
MAGI2_2 PDZ = MAGI2_2 PDZ (Homo sapiens, UniProt Q86UL8); assay: Holdup assay; conditions: composite holdup affinity; 0.00=below quantification threshold; read-out: COMP pKd (converted)
GRIP2_4 PDZ = GRIP2_4 PDZ (Homo sapiens, UniProt Q9C0E4); assay: Holdup assay; conditions: composite holdup affinity; 0.00=below quantification threshold; read-out: COMP pKd (converted)
GRIP1_1 PDZ = GRIP1_1 PDZ (Homo sapiens, UniProt Q9Y3R0); assay: Holdup assay; conditions: sheet PPI_convert; read-out: affinity to PDZ GRIP1_1 (converted)
SNTG2 PDZ = SNTG2 PDZ (Homo sapiens, UniProt Q9NY99); assay: Holdup assay; conditions: composite holdup affinity; 0.00=below quantification threshold; read-out: COMP pKd (converted)
MAST2 PDZ = target: T1, MAST2 PDZ (Homo sapiens, UniProt Q6P0Q8); assay: biochemical; conditions: composite holdup affinity; 0.00=below quantification threshold; read-out: COMP pKd (converted)
T1 sequence (Q6P0Q8 1104-1192 limits assumed): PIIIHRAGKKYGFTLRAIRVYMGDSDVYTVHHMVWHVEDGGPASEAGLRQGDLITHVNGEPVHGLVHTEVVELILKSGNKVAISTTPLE

GRIP2_5 PDZ = GRIP2_5 PDZ (Homo sapiens, UniProt Q9C0E4); assay: Holdup assay; conditions: composite holdup affinity; 0.00=below quantification threshold; read-out: COMP pKd (converted)
PDZD2_4 PDZ = PDZD2_4 PDZ (Homo sapiens, UniProt O15018); assay: Holdup assay; conditions: sheet PPI_convert; read-out: affinity to PDZ PDZD2_4 (converted)
SCRIB_3 PDZ = SCRIB_3 PDZ (Homo sapiens, UniProt Q14160); assay: Holdup assay; conditions: composite holdup affinity; 0.00=below quantification threshold; read-out: COMP pKd (converted)
FRMPD2_1 PDZ = FRMPD2_1 PDZ (Homo sapiens, UniProt Q68DX3); assay: Holdup assay; conditions: composite holdup affinity; 0.00=below quantification threshold; read-out: COMP pKd (converted)
SNX27 PDZ = SNX27 PDZ (Homo sapiens, UniProt Q96L92); assay: Holdup assay; conditions: composite holdup affinity; 0.00=below quantification threshold; read-out: COMP pKd (converted)
SNTB1 PDZ = SNTB1 PDZ (Homo sapiens, UniProt Q13884); assay: Holdup assay; conditions: composite holdup affinity; 0.00=below quantification threshold; read-out: COMP pKd (converted)
SHANK1 PDZ = SHANK1 PDZ (Homo sapiens, UniProt Q9Y566); assay: Holdup assay; conditions: composite holdup affinity; 0.00=below quantification threshold; read-out: COMP pKd (converted)
DLG4_2 PDZ = DLG4_2 PDZ (Homo sapiens, UniProt P78352); assay: Holdup assay; conditions: composite holdup affinity; 0.00=below quantification threshold; read-out: COMP pKd (converted)
LIN7C PDZ = LIN7C PDZ (Homo sapiens, UniProt Q9NUP9); assay: Holdup assay; conditions: composite holdup affinity; 0.00=below quantification threshold; read-out: COMP pKd (converted)
GRIP1_2 PDZ = GRIP1_2 PDZ (Homo sapiens, UniProt Q9Y3R0); assay: Holdup assay; conditions: composite holdup affinity; 0.00=below quantification threshold; read-out: COMP pKd (converted)
Inadl_3 PDZ = Inadl_3 PDZ (Homo sapiens, UniProt Q8NI35); assay: Holdup assay; conditions: composite holdup affinity; 0.00=below quantification threshold; read-out: COMP pKd (converted)
MPP1 PDZ = MPP1 PDZ (Homo sapiens, UniProt Q00013); assay: Holdup assay; conditions: sheet PPI_convert; read-out: affinity to PDZ MPP1 (converted)
IL16_1 PDZ = IL16_1 PDZ (Homo sapiens, UniProt Q14005); assay: Holdup assay; conditions: composite holdup affinity; 0.00=below quantification threshold; read-out: COMP pKd (converted)
SCRIB_1 PDZ = SCRIB_1 PDZ (Homo sapiens, UniProt Q14160); assay: Holdup assay; conditions: composite holdup affinity; 0.00=below quantification threshold; read-out: COMP pKd (converted)
DLG2_3 PDZ = DLG2_3 PDZ (Homo sapiens, UniProt Q15700); assay: Holdup assay; conditions: composite holdup affinity; 0.00=below quantification threshold; read-out: COMP pKd (converted)
PDZRN4_2 PDZ = PDZRN4_2 PDZ (Homo sapiens, UniProt Q6ZMN7); assay: Holdup assay; conditions: sheet PPI_convert; read-out: affinity to PDZ PDZRN4_2 (converted)
Inadl_8 PDZ = Inadl_8 PDZ (Homo sapiens, UniProt Q8NI35); assay: Holdup assay; conditions: composite holdup affinity; 0.00=below quantification threshold; read-out: COMP pKd (converted)
MAGI1_6 PDZ = MAGI1_6 PDZ (Homo sapiens, UniProt Q96QZ7); assay: Holdup assay; conditions: sheet PPI_convert; read-out: affinity to PDZ MAGI1_6 (converted)
AHNAK1 PDZ = AHNAK1 PDZ (Homo sapiens, UniProt Q09666); assay: Holdup assay; conditions: composite holdup affinity; 0.00=below quantification threshold; read-out: COMP pKd (converted)
MAGI1_3 PDZ = MAGI1_3 PDZ (Homo sapiens, UniProt Q96QZ7); assay: Holdup assay; conditions: sheet PPI_convert; read-out: affinity to PDZ MAGI1_3 (converted)
FRMPD2_2 PDZ = FRMPD2_2 PDZ (Homo sapiens, UniProt Q68DX3); assay: Holdup assay; conditions: composite holdup affinity; 0.00=below quantification threshold; read-out: COMP pKd (converted)
PDZRN3_2 PDZ = PDZRN3_2 PDZ (Homo sapiens, UniProt Q9UPQ7); assay: Holdup assay; conditions: sheet PPI_convert; read-out: affinity to PDZ PDZRN3_2 (converted)
CARD14 PDZ = CARD14 PDZ (Homo sapiens, UniProt Q9BXL6); assay: Holdup assay; conditions: sheet PPI_convert; read-out: affinity to PDZ CARD14 (converted)
Inadl_5 PDZ = Inadl_5 PDZ (Homo sapiens, UniProt Q8NI35); assay: Holdup assay; conditions: composite holdup affinity; 0.00=below quantification threshold; read-out: COMP pKd (converted)
PARD3B_2 PDZ = PARD3B_2 PDZ (Homo sapiens, UniProt Q8TEW8); assay: Holdup assay; conditions: sheet PPI_convert; read-out: affinity to PDZ PARD3B_2 (converted)
PARD3B_2 PDZ, sequence (Q8TEW8 383-468 limits assumed): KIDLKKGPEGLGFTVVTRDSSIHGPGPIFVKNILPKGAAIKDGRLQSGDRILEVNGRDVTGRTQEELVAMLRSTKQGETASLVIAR

DLG4_3 PDZ, sequence (P78352 313-393 limits assumed): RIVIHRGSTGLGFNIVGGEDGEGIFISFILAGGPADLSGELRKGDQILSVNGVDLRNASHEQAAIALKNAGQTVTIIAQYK
MAGI2_5 PDZ, sequence (Q86UL8 920-1010 limits assumed): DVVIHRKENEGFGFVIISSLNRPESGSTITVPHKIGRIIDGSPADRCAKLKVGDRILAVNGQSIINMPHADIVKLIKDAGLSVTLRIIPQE
GRIP1_2 PDZ, sequence (Q9Y3R0 150-238 limits assumed): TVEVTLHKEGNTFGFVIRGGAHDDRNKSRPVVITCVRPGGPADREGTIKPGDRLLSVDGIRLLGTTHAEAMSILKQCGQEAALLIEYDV
DLG4_2 PDZ, sequence (P78352 160-246 limits assumed): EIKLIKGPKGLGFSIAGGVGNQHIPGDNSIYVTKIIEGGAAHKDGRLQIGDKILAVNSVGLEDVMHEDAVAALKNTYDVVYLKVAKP
SCRIB_3 PDZ, sequence (Q14160 1004-1093 limits assumed): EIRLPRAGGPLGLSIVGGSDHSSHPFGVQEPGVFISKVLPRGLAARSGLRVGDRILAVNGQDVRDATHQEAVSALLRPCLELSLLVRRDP
PDZD2_4 PDZ, sequence (O15018 728-813 limits assumed): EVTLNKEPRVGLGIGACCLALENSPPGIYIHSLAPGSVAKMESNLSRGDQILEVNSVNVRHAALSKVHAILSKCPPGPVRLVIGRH
LIN7C PDZ, sequence (Q9NUP9 93-175 limits assumed): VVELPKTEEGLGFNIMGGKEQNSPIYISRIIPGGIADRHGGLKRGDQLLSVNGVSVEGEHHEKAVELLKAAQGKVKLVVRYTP
SCRIB_1 PDZ, sequence (Q14160 728-815 limits assumed): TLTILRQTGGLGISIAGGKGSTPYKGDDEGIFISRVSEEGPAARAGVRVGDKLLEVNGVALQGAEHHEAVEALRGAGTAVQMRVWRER
MAGI2_2 PDZ, sequence (Q86UL8 426-510 limits assumed): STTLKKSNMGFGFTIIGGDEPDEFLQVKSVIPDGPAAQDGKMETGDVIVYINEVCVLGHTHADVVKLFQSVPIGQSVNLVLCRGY
SNTG2 PDZ, sequence (Q9NY99 73-156 limits assumed): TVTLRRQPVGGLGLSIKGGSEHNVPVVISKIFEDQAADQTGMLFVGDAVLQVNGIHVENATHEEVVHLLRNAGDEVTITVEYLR
DLG2_3 PDZ, sequence (Q15700 421-501 limits assumed): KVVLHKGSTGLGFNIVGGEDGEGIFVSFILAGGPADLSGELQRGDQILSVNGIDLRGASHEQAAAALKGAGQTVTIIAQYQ
SNTB1 PDZ, sequence (Q13884 112-195 limits assumed): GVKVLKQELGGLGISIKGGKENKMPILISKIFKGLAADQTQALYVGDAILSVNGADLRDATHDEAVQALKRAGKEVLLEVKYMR
FRMPD2_2 PDZ, sequence (Q68DX3 950-1035 limits assumed): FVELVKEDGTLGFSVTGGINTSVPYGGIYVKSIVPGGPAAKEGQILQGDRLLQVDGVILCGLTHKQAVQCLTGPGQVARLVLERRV
DLG3_3 PDZ, sequence (Q92796 379-465 limits assumed): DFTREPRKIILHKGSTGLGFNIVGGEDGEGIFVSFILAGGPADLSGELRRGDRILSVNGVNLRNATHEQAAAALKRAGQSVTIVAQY
MPP1 PDZ, sequence (Q00013 71-152 limits assumed): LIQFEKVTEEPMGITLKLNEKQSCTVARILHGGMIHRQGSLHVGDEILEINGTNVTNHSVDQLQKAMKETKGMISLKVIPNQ
MAGI1_6 PDZ, sequence (Q96QZ7 1124-1206 limits assumed): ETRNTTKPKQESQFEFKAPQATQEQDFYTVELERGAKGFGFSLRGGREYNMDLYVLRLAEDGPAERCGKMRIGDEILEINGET
SHANK1 PDZ, sequence (Q9Y566 663-757 limits assumed): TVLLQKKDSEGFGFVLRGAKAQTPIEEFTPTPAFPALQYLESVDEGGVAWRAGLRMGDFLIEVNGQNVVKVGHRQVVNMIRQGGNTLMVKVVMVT
GRIP2_4 PDZ, sequence (Q9C0E4 456-545 limits assumed): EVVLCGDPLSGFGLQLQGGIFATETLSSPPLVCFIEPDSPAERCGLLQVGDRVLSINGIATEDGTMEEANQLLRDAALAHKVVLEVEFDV
MAGI1_3 PDZ, sequence (Q96QZ7 643-721 limits assumed): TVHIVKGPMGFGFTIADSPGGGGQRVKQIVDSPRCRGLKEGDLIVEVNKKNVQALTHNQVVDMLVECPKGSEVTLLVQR
AHNAK1 PDZ, sequence (Q09666 9-90 limits assumed): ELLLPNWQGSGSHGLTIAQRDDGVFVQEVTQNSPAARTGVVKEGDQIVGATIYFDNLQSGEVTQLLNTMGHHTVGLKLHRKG
PDZRN3_2 PDZ, sequence (Q9UPQ7 419-503 limits assumed): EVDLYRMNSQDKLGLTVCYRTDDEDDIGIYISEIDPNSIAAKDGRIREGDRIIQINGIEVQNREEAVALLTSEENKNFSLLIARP
GRIP2_6 PDZ, sequence (Q9C0E4 656-738 limits assumed): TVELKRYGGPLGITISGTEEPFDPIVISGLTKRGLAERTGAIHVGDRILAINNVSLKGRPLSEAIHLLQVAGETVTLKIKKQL
GRIP2_3 PDZ, sequence (Q9C0E4 248-332 limits assumed): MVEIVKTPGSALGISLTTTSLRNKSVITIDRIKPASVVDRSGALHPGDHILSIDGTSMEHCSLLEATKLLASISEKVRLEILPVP
GRIP2_5 PDZ, sequence (Q9C0E4 557-641 limits assumed): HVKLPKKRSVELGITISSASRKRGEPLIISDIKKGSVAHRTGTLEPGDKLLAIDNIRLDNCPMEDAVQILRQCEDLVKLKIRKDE
CARD14 PDZ, sequence (Q9BXL6 568-658 limits assumed): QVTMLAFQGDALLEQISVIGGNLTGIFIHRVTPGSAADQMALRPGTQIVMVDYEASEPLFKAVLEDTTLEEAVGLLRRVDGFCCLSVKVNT
Inadl_5 PDZ, sequence (Q8NI35 686-772 limits assumed): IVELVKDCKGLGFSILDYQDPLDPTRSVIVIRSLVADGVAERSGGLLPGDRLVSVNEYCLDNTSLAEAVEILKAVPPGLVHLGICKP
GRIP1_1 PDZ, sequence (Q9Y3R0 53-136 limits assumed): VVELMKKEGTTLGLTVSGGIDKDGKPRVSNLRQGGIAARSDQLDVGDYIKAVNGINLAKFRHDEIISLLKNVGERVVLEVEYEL
FRMPD2_1 PDZ, sequence (Q68DX3 775-861 limits assumed): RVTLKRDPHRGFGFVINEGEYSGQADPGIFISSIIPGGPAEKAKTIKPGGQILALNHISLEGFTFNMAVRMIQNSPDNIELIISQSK
IL16_1 PDZ, sequence (Q14005 216-302 limits assumed): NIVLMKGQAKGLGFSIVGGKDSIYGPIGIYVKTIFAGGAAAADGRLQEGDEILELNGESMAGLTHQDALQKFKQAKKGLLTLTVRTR
PDZRN4_2 PDZ, sequence (Q6ZMN7 402-486 limits assumed): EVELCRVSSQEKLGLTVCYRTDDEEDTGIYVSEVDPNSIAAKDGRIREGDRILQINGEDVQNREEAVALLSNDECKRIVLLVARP
Inadl_8 PDZ, sequence (Q8NI35 1437-1520 limits assumed): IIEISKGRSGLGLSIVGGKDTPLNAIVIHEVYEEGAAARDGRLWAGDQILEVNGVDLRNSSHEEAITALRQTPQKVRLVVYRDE
HTRA1 PDZ, sequence (Q92743 365-467 limits assumed): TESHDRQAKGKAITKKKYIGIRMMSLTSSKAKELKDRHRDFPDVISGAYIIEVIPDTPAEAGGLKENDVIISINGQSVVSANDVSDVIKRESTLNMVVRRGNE
Inadl_3 PDZ, sequence (Q8NI35 365-453 limits assumed): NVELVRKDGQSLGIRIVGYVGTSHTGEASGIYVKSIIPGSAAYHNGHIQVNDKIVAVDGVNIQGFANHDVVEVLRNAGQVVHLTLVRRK

Sequence | Kd (MAGI2_5 PDZ) [µM] | Kd (DLG4_3 PDZ) [µM] | Kd (DLG3_3 PDZ) [µM] | Kd (MAGI2_2 PDZ) [µM] | Kd (SNTG2 PDZ) [µM] | Kd (MAST2 PDZ) [µM] | Kd (PDZD2_4 PDZ) [µM] | Kd (SCRIB_3 PDZ) [µM] | Kd (SNX27 PDZ) [µM] | Kd (SNTB1 PDZ) [µM] | Kd (DLG4_2 PDZ) [µM] | Kd (LIN7C PDZ) [µM] | Kd (GRIP1_2 PDZ) [µM] | Kd (MPP1 PDZ) [µM] | Kd (SCRIB_1 PDZ) [µM] | Kd (DLG2_3 PDZ) [µM] | Kd (FRMPD2_2 PDZ) [µM] | also measured
RHTTSTETAV [HPV30-E6] | 49 | 44.7 | 21.9 | 9.12 | 21.4 | 3.02 | 16.6 | 9.55 | 2.29 | 7.94 | 3.55 | 64.6 | 166 | 6.76 | 17.4 | 16.2 | 58.9 | Kd (HTRA1 PDZ): 186 µM; Kd (GRIP2_6 PDZ): 170 µM; Kd (GRIP2_3 PDZ): 245 µM; Kd (GRIP2_4 PDZ): 219 µM; Kd (GRIP1_1 PDZ): 25.7 µM; Kd (GRIP2_5 PDZ): 178 µM; Kd (FRMPD2_1 PDZ): 72.4 µM; Kd (SHANK1 PDZ): 186 µM; Kd (Inadl_3 PDZ): 170 µM; Kd (IL16_1 PDZ): 83.2 µM; Kd (PDZRN4_2 PDZ): 33.1 µM; Kd (Inadl_8 PDZ): 115 µM; Kd (MAGI1_6 PDZ): 18.6 µM; Kd (AHNAK1 PDZ): 191 µM; Kd (MAGI1_3 PDZ): 19.1 µM
RTRQRNETQV [HPV51-E6] | 75.9 | 17.8 | 12.3 | 0.219 | 60.3 | 5.37 | 45.7 | 67.6 | 14.1 | 81.3 | 10.2 | 145 | 347 | 1.55 | 27.5 | 17.8 | 389 | Kd (PDZRN3_2 PDZ): 69.2 µM; Kd (CARD14 PDZ): 45.7 µM; Kd (Inadl_5 PDZ): 398 µM; Kd (PARD3B_2 PDZ): 40.7 µM
